Source: PubChem BioAssay AID1745844 (Carcinogenic Potency Database (CPDB), 2022)
Activity calls are given as the source filed them. No rule for the calls is given here.

Tested on: rodent lifetime carcinogenesis bioassay, tumor incidence TD50
Test: carcinogenic potency in animals, long-term in vivo studies, CPDB compilation (AID 1745844)

For C=CCNNCC=C, the carcinogen call (mouse, strain Swiss albino, females, in drinking water, site: liver, lesion: angioma, dosed 83 weeks, study length 83 weeks) was “negative (inactive)”, the carcinogen call (mouse, strain Swiss albino, females, in drinking water, site: liver, lesion: angiosarcoma, dosed 83 weeks, study length 83 weeks) was “negative (inactive)” and the TD50 (mouse, strain Swiss albino, females, in drinking water, site: liver, lesion: hepatoma, dosed 83 weeks, study length 83 weeks) was 409 mg/kg/day (inactive). The TD50 (mouse, strain Swiss albino, females, in drinking water, site: lung, lesion: adenocarcinoma, dosed 83 weeks, study length 83 weeks) was 78.3 mg/kg/day, the TD50 (mouse, strain Swiss albino, females, in drinking water, site: lung, lesion: adenoma, dosed 83 weeks, study length 83 weeks) was 47.9 mg/kg/day and the TD50 (mouse, strain Swiss albino, females, in drinking water, site: lung, lesion: several types, types named in the paper, dosed 83 weeks, study length 83 weeks) was 33.8 mg/kg/day. The carcinogen call (mouse, strain Swiss albino, males, in drinking water, site: liver, lesion: angioma, dosed 82 weeks, study length 82 weeks) was “negative (inactive)”, the TD50 (mouse, strain Swiss albino, males, in drinking water, site: lung, lesion: adenocarcinoma, dosed 82 weeks, study length 82 weeks) was 60 mg/kg/day and the TD50 (mouse, strain Swiss albino, males, in drinking water, site: lung, lesion: adenoma, dosed 82 weeks, study length 82 weeks) was 35.4 mg/kg/day. The TD50 (mouse, strain Swiss albino, males, in drinking water, site: lung, lesion: several types, types named in the paper, dosed 82 weeks, study length 82 weeks) was 33.9 mg/kg/day.

CN(N=O)c1ccncc1 was tested, and the carcinogen call (rat, strain BD VI, females, by gavage, site: any site (literature study), lesion: benign tumor, dosed 101 weeks, study length 101 weeks) was “negative (inactive)”, the TD50 (rat, strain BD VI, females, by gavage, site: any site (literature study), lesion: malignant tumor, dosed 101 weeks, study length 101 weeks) was 26.8 mg/kg/day (inactive) and the carcinogen call (rat, strain BD VI, females, by gavage, site: any site (literature study), lesion: several types, types named in the paper, dosed 101 weeks, study length 101 weeks) was “negative (inactive)”. For the same compound, the carcinogen call (rat, strain BD VI, females, by gavage, site: liver, lesion: several types, types named in the paper, dosed 101 weeks, study length 101 weeks) was “negative (inactive)”.

For CCCOC(=O)C1c2cc3c(cc2CC(C)C1C(=O)OCCC)OCO3 (stereo not drawn), the TD50 (mouse, strain B6AKF1, females, oral dosing, site: any site (literature study), lesion: several types, types named in the paper, dosed 76 weeks, study length 76 weeks) was 4390 mg/kg/day (inactive), the carcinogen call (mouse, strain B6AKF1, females, oral dosing, site: liver, lesion: hepatoma, dosed 76 weeks, study length 76 weeks) was “negative (inactive)” and the TD50 (mouse, strain B6AKF1, females, oral dosing, site: lung, lesion: adenoma, dosed 76 weeks, study length 76 weeks) was 4690 mg/kg/day (inactive). The carcinogen call (mouse, strain B6AKF1, males, oral dosing, site: any site (literature study), lesion: several types, types named in the paper, dosed 76 weeks, study length 76 weeks) was “negative (inactive)”, the carcinogen call (mouse, strain B6AKF1, males, oral dosing, site: liver, lesion: hepatoma, dosed 76 weeks, study length 76 weeks) was “negative (inactive)” and the carcinogen call (mouse, strain B6AKF1, males, oral dosing, site: lung, lesion: adenoma, dosed 76 weeks, study length 76 weeks) was “negative (inactive)”. For the same compound, the carcinogen call (mouse, strain B6C3F1, females, oral dosing, site: any site (literature study), lesion: one or several types, types not named, dosed 76 weeks, study length 76 weeks) was “negative (inactive)”, the carcinogen call (mouse, strain B6C3F1, females, oral dosing, site: liver, lesion: hepatoma, dosed 76 weeks, study length 76 weeks) was “negative (inactive)” and the carcinogen call (mouse, strain B6C3F1, females, oral dosing, site: lung, lesion: several types, types named in the paper, dosed 76 weeks, study length 76 weeks) was “negative (inactive)”. The TD50 (mouse, strain B6C3F1, males, oral dosing, site: any site (literature study), lesion: several types, types named in the paper, dosed 76 weeks, study length 76 weeks) was 374 mg/kg/day (inactive), the TD50 (mouse, strain B6C3F1, males, oral dosing, site: liver, lesion: hepatoma, dosed 76 weeks, study length 76 weeks) was 1050 mg/kg/day (inactive) and the TD50 (mouse, strain B6C3F1, males, oral dosing, site: lung, lesion: adenoma, dosed 76 weeks, study length 76 weeks) was 4650 mg/kg/day (inactive).

In the case of N[C@@H](CC(=O)O)C(=O)O, the TD50 (rat, strain F344/DuCrj, females, in drinking water, site: any site (literature study), lesion: several types, types named in the paper, dosed 100 weeks, study length 100 weeks) is reported as 8340 mg/kg/day (inactive), the carcinogen call (rat, strain F344/DuCrj, females, in drinking water, site: liver, lesion: one or several types, types not named, dosed 100 weeks, study length 100 weeks) is reported as “negative (inactive)” and the TD50 (rat, strain F344/DuCrj, males, in drinking water, site: any site (literature study), lesion: several types, types named in the paper, dosed 100 weeks, study length 100 weeks) is reported as 2720 mg/kg/day (inactive). For the same compound, the carcinogen call (rat, strain F344/DuCrj, males, in drinking water, site: liver, lesion: one or several types, types not named, dosed 100 weeks, study length 100 weeks) was “negative (inactive)”.

For O=NN1CC=CCO1, the TD50 (rat, strain Sprague-Dawley, both sexes, in drinking water, site: any site (literature study), lesion: malignant tumor, dosed 87 weeks, study length 101 weeks) was 90.6 mg/kg/day, the TD50 (rat, strain Sprague-Dawley, both sexes, in drinking water, site: any site (literature study), lesion: several types, types named in the paper, dosed 87 weeks, study length 101 weeks) was 110 mg/kg/day and the TD50 (rat, strain Sprague-Dawley, both sexes, in drinking water, site: liver, lesion: hepatoma, dosed 87 weeks, study length 101 weeks) was 417 mg/kg/day (inactive).
